Experimental data: US12209079B2 (GENERAL INCORPORATED ASSOCIATION PHARMA VALLEY PROJECT …, priority 2017, dated 2025)

Assays:
[1] = tested on: subcutaneous CT-26WT syngeneic graft of large intestine cancer; assay: Drug efficacy test, combined use of compound 1, 15 or 29 and oxaliplatin, mice with subcutaneous CT-26WT syngeneic graft (Test Example 4); assay type: in vivo, mouse; details: 40 mg/kg oral twice a day, combined with oxaliplatin 10 mg/kg i.v.; Balb/c mice; FIG. 3
Procedure: Drug Efficacy Test on Combined Use of Compound 1, Compound 15 or Compound 29 and Oxaliplatin Using Mice with Subcutaneous CT-26WT Syngeneic Graft of Large Intestine Cancer
5×10^5 cells of syngeneic large intestine cancer cell line CT26WT were subcutaneously transplanted to each of 6-week-old female Balb/c mice. The mice were divided into 5 groups each involving 6 individuals 10 days later when the average tumor size was 139 mm^3. The oral administration (solvent for oral administration and 40 mg/kg each of compound 1, compound 15 and compound 29 were administered twice a day at a 5-hour interval from days 1 to 5 and days 8 to 12) and intravenous injection (5% glucose solution and 10 mg/kg oxaliplatin were administered once a day on days 1 and 8) of each agent were started. Then, the major axis and minor axis of subcutaneous tumor were measured three times a week using calipers, and a mean and standard error of the mean of the ratios of the calculated volumes to the volumes at the administration start day in each group were plotted. The calculation expression was Volume (mm^3)=[Width^2 (mm^2)×Length (mm)]/2. The solvent group, compound 1 and compound 15 were each dissolved in a solvent for oral administration of DMSO:PEG400:PBS=10:40:150, and compound 29 was dissolved in a solvent for oral administration of DMSO:PEG400:PBS=20:80:50.
∘: the solvent for oral administration and the 5% glucose solution, •: the solvent for oral administration and oxaliplatin, ▴: compound 1 and oxaliplatin, ▪: compound 15 and oxaliplatin, and x: compound 29 and oxaliplatin.

[2] = biological target: rhTDO (recombinant human TDO) (Homo sapiens, UniProt P48775); assay: Enzyme assay using rhTDO (rate of kynurenine production); assay type: biochemical; details: 2 h; final concentration of the compound 10 μM; rate relative to reaction without compound; read-out: rhTDO-mediated kynurenine production
In short: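 Kynurenine output, as percent of untreated control after background subtraction, read at 490 nm with p-dimethylbenzaldehyde following TCA quench and 15 min heating at 50 °C. Reaction: rhTDO with compound, 10 min preincubation then 120 min at 37 °C, started by 20 mM tryptophan stock, in phosphate/ascorbate/methylene blue/catalase.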

[3] = biological target: rhIDO (recombinant human IDO) (Homo sapiens, UniProt P14902); assay: Enzyme assay using rhIDO (rate of kynurenine production); assay type: biochemical; details: 2 h; final concentration of the compound 10 μM; rate relative to reaction without compound; read-out: rhIDO-mediated kynurenine production
In short: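 rhIDO preincubated with compound 10 min at 37 °C in phosphate buffer with ascorbate, methylene blue and catalase; started with 2 mM tryptophan solution (stock) and run 120 min at 37 °C. Stopped with TCA and heated to convert N-formylkynurenine; kynurenine read at 490 nm after p-dimethylbenzaldehyde, background-subtracted, as % of no-compound control.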

rhIDO (recombinant human IDO), sequence (P14902 whole entry): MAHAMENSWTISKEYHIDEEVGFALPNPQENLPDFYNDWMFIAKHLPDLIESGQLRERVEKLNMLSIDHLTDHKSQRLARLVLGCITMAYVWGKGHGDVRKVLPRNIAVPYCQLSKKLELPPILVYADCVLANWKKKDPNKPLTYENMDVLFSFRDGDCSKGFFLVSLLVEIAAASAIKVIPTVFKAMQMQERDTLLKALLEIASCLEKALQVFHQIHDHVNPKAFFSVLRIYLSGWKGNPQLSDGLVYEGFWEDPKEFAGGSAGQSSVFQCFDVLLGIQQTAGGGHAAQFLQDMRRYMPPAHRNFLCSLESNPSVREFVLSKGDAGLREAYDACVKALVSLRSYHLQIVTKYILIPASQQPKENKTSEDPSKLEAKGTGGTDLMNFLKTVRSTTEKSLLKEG
rhTDO (recombinant human TDO), sequence (P48775 whole entry): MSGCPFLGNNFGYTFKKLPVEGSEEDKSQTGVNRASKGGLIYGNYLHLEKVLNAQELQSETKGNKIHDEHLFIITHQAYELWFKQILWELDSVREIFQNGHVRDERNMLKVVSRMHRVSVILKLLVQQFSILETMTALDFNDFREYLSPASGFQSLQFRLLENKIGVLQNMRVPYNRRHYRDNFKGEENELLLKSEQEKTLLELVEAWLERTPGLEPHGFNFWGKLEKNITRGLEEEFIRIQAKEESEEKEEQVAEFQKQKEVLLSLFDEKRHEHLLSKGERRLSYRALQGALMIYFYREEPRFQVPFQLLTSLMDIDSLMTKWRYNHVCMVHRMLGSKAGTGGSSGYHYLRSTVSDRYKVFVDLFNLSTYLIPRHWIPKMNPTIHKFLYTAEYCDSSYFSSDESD

SMILES: Cl.Cl.N=C(N)SCc1ccccc1CSC(=N)N [Compound 1, 1,2-phenylenebis(methylene) dicarbamimidothioate dihydrochloride]
- tumor growth (ratio of tumor volume to start day) [1]: can suppress tumor growth
- remaining activity at 10 µM [2]: 13%
- remaining activity at 10 µM [3]: 26%

SMILES: Br.Br.N=C(N)SCc1ccc(F)cc1CSC(=N)N [Compound 2, (4-fluoro-1,2-phenylene)bis(methylene) dicarbamimidothioate dihydrobromide]
- remaining activity at 10 µM [2]: 6%
- remaining activity at 10 µM [3]: 11%

SMILES: Br.Br.N=C(N)SCc1ccc(Cl)cc1CSC(=N)N [Compound 7, (4-chloro-1,2-phenylene)bis(methylene) dicarbamimidothioate dihydrobromide]
- remaining activity at 10 µM [2]: 3%
- remaining activity at 10 µM [3]: 10%

SMILES: Br.Br.N=C(N)SCc1ccc(Br)cc1CSC(=N)N [Compound 10, (4-bromo-1,2-phenylene)bis(methylene) dicarbamimidothioate dihydrobromide]
- remaining activity at 10 µM [2]: 3%
- remaining activity at 10 µM [3]: 1%

SMILES: Br.Br.N=C(N)SCc1cscc1CSC(=N)N [Compound 15, thiophene-3,4-diylbis(methylene) dicarbamimidothioate dihydrobromide]
- tumor growth (ratio of tumor volume to start day) [1]: can suppress tumor growth
- remaining activity at 10 µM [2]: 12%
- remaining activity at 10 µM [3]: 22%

SMILES: c1ccc(CSC2=NCN(CC3CCCCC3)CN2)c(CSC2=NCN(CC3CCCCC3)CN2)c1 [Compound 29, 1,2-bis(((5-(cyclohexylmethyl)-1,4,5,6-tetrahydro-1,3,5-triazin-2-yl)thio)methyl)benzene]
- tumor growth (ratio of tumor volume to start day) [1]: can suppress tumor growth
- remaining activity at 10 µM [2]: 15%
- remaining activity at 10 µM [3]: 23%

SMILES: Br.Br.N=C(N)SCc1ccsc1CSC(=N)N [Compound 31, thiophene-2,3-diylbis(methylene) dicarbamimidothioate dihydrobromide]
- remaining activity at 10 µM [2]: 17%
- remaining activity at 10 µM [3]: 11%

SMILES: Cl.Cl.c1ccc(CCN2CN=C(SCc3cscc3CSC3=NCN(CCc4ccccc4)CN3)NC2)cc1 [Compound 33, 3,4-Bis{[(5-phenethyl-1,4,5,6-tetrahydro-1,3,5-triazin-2-yl)thio]methyl}thiophene dihydrochloride]
- remaining activity at 10 µM [2]: 21%
- remaining activity at 10 µM [3]: 37%

SMILES: Clc1cc(CSC2=NCN(CCc3ccccc3)CN2)c(CSC2=NCN(CCc3ccccc3)CN2)cc1Cl [Compound 37, 6,6′-(((4,5-Dichloro-1,2-phenylene)bis(methylene))bis(sulfanediyl))bis(3-phenethyl-1,2,3,4-tetrahydro-1,3,5-triazine)]
- remaining activity at 10 µM [2]: < 7%
- remaining activity at 10 µM [3]: < 9%

SMILES: N/C(=N\c1ccc(Br)cc1)SCc1ccc(Br)cc1CS/C(N)=N/c1ccc(Br)cc1 [Compound 49, (4-Bromo-1,2-phenylene)bis(methylene) (E,E)-bis(N′-(4-bromophenyl)carbamimidothioate)]
- remaining activity at 10 µM [2]: 15%
- remaining activity at 10 µM [3]: 1%

SMILES: Clc1cc(CSC2=NCN(CC3CCCCC3)CN2)c(CSC2=NCN(CC3CCCCC3)CN2)cc1Cl [Compound 50, 6,6′-(((4,5-Dichloro-1,2-phenylene)bis(methylene))bis(sulfanediyl))bis(3-(cyclohexylmethyl)-1,2,3,4-tetrahydro-1,3,5-triazine)]
- remaining activity at 10 µM [2]: 4%
- remaining activity at 10 µM [3]: 9%

SMILES: Brc1ccc(CSC2=NCN(CC3CCCCC3)CN2)c(CSC2=NCN(CC3CCCCC3)CN2)c1 [Compound 52, 6,6′-(((4-Bromo-1,2-phenylene)bis(methylene))bis(sulfanediyl))bis(3-(cyclohexylmethyl)-1,2,3,4-tetrahydro-1,3,5-triazine)]
- remaining activity at 10 µM [2]: 5%
- remaining activity at 10 µM [3]: 14%

SMILES: Br.N#Cc1ccc(CNC(=O)c2ccc(Br)cc2CSC(=N)N)cc1 [Compound 76, 5-Bromo-2-((4-cyanobenzyl)carbamoyl)benzyl carbamimidothioate hydrobromide]
- remaining activity at 10 µM [2]: 15%
- remaining activity at 10 µM [3]: 78%

SMILES: Br.Br.N/C(=N\c1ccc(F)cc1F)SCc1ccccc1CS/C(N)=N/c1ccc(F)cc1F [Compound 95, 1,2-Phenylenebis(methylene) (E,E)-bis(N-(2,4-difluorophenyl)carbamimidothioate)dihydrobromide]
- remaining activity at 10 µM [2]: 6%
- remaining activity at 10 µM [3]: 3%

SMILES: Br.N#Cc1ccc(CNC(=O)c2cc(Br)ccc2CSC(=N)N)cc1 [Compound 103, 4-Bromo-2-((4-cyanobenzyl)carbamoyl)benzyl carbamimidothioate hydrobromide]
- remaining activity at 10 µM [2]: 22%
- remaining activity at 10 µM [3]: 0%
